The text below walks through data of PMC11665983, “Inhibition of CFTR-mediated intestinal chloride secretion by nornidulin: Cellular mechanisms and anti-secretory efficacy in human intestinal epithelial cells and human colonoids” (PLOS ONE, 2024).

What is called IC50 is the concentration needed to halve the response being measured. A higher IC50 goes with lower potency.

This assay addresses cystic fibrosis transmembrane conductance regulator (CFTR) (Homo sapiens, UniProt P13569). Briefly: CPT-cAMP-stimulated apical chloride current in basolaterally permeabilized T84 monolayers (endogenous CFTR); genistein-stimulated current also inhibited (IC50 […]). The assay is classed as cell-based.

Chain of cystic fibrosis transmembrane conductance regulator (CFTR) (P13569 whole entry): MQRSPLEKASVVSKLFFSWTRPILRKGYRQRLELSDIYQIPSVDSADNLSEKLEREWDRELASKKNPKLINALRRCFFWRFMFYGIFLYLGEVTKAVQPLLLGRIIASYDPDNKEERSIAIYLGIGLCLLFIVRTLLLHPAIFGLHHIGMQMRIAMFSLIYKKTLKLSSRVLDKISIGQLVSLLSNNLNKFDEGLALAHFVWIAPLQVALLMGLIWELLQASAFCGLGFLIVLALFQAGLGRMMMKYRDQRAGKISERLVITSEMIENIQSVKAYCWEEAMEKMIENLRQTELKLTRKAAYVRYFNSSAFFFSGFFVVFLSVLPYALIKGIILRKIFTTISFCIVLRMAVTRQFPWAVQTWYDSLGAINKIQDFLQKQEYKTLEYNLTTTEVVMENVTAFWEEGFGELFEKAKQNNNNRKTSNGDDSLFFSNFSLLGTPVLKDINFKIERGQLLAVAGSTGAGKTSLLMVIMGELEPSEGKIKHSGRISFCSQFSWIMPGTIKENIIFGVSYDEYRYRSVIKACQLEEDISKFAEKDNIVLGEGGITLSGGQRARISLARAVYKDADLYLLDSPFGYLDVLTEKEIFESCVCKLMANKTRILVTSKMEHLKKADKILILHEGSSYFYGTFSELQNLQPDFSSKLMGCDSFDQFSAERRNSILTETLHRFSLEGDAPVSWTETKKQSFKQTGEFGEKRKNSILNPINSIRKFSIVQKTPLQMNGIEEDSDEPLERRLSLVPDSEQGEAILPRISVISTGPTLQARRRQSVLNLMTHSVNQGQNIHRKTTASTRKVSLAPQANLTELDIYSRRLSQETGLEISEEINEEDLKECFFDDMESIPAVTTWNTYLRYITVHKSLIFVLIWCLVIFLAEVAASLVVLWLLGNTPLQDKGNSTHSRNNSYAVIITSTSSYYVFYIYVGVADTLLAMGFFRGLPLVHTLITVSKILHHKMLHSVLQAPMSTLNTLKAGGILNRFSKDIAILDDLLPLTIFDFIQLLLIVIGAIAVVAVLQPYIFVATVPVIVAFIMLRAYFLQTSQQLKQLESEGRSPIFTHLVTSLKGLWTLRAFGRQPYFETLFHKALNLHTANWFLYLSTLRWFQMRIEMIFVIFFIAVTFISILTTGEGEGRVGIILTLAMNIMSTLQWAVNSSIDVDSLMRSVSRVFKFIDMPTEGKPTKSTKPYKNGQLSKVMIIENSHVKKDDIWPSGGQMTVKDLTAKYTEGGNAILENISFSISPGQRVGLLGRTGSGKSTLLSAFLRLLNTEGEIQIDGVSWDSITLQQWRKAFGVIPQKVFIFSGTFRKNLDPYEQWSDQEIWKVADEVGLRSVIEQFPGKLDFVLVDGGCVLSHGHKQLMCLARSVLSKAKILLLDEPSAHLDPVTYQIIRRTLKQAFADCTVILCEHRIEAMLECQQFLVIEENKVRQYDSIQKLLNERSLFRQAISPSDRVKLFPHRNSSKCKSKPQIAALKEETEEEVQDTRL

Turning to `C/C=C(\C)c1c(Cl)c(O)c(C)c2c1Oc1c(Cl)c(O)c(Cl)c(C)c1C(=O)O2` [N9, nornidulin], the IC50 came out at 1030 ± 130 nM.
